In patent publication US20220117938A1, “COMBINATON THERAPY WITH A DON PRODRUG AND AN IMMUNE CHECKPOINT INHIBITOR” (DRACEN PHARMACEUTICALS, INC., priority 2019, published 2022):

What was measured:
CT26 tumors = test: CT26 model, Compound 1 5-day ON 2-day OFF with and without anti-PD-1 (Example 2B, similar experiment, Tables 2B-5/2B-6); assay type: in vivo, mice; conditions: for Cures / Median Survival: 5-day ON 2-day OFF; for Mean Tumor Vol / TGI: Day 15; for BWC: mouse, in vivo
MC-38 tumors = test: MC-38 re-implantation study in tumor free mice (Example 3); assay type: in vivo, Mus musculus; conditions: for Tumor volume (Mean ± SEM): four tumor free mice of Group 5 (0.7 mpk 5-days ON 2-days OFF x 4 cycles)
Protocol: Four mice in Group 5 were tumor free on D67 and 1×10^6 MC-38 cells suspended in 100 μL base DMEM were inoculated subcutaneously into the left flank. 5 naïve mice were inoculated with the same inoculation condition as control. The tumor sizes were measured three times per week during the treatment. The study was terminated on D102.
Four mice in Group 5 were tumor free on D67 and 1×10^6 MC-38 cells suspended in 100 μL base DMEM were inoculated subcutaneously into the left flank. 5 naïve mice were inoculated with the same inoculation condition as control.

H22 tumors = test: Anti-tumor efficacy of Compound 1 with and without anti-PD-L1 in the H22 subcutaneous syngeneic model (Example 6); assay type: in vivo, mice
Protocol: Female BALB/c mice were inoculated subcutaneously at right flank with H22 tumor cells for tumor development. Treatment began on Day 6 post tumor inoculation and the mice were treated for 21 days. Tumor and weight measurements were continued for the duration of the study, and the survival was recorded until Day 106. The results are summarized Table 6-1, Table 6-2, and FIG. 23. In all cases the dosing volume was 10 ml/kg. PD-L1 antibody was obtained from Bioxcell.

[1] = 0.15 mg/kg 5-day ON 2-day OFF x 4 cycles
[2] = 0.5 mg/kg 5-day ON 2-day OFF x 4 cycles
[3] = 1.4 mg/kg 5-day ON 2-day OFF x 4 cycles
[4] = 4 cured mice of Group 5 (0.7 mpk) re-implanted with MC-38 cells
[5] = 0.7 mg/kg 5-day ON 2-day OFF x 3 cycles
[6] = 1.4 mg/kg 5-day ON 2-day OFF x 3 cycles
[7] = Day 26, 0.7 mg/kg 5-day ON 2-day OFF x 3 cycles
[8] = Day 26, 1.4 mg/kg 5-day ON 2-day OFF x 3 cycles

CC(=O)N[C@@H](Cc1c[nH]c2ccccc12)C(=O)N[C@@H](CCC(=O)C=[N+]=[N-])C(=O)OC(C)C [Compound 1, Isopropyl (S)-2-((S)-2-acetamido-3-(1H-indol-3-yl)propanamido)-6-diazo-5-oxohexanoate]
Cures (CT26 tumors; Compound 1 0.15 mg/kg): 0% | Median Survival (CT26 tumors; Compound 1 0.15 mg/kg): 26 days | Cures (CT26 tumors; Compound 1 0.5 mg/kg): 0% | Median Survival (CT26 tumors; Compound 1 0.5 mg/kg): 36 days | Cures (CT26 tumors; Compound 1 1.4 mg/kg): 0% | Median Survival (CT26 tumors; Compound 1 1.4 mg/kg): 37 days | Mean Tumor Vol (CT26 tumors; [1]): 188 ± 29 mm^3 | TGI (CT26 tumors; [1]): 76% | Mean Tumor Vol (CT26 tumors; [2]): 150 ± 21 mm^3 | TGI (CT26 tumors; [2]): 88% | Mean Tumor Vol (CT26 tumors; [3]): 106 ± 16 mm^3 | TGI (CT26 tumors; [3]): 91% | BWC (CT26 tumors; 0.15 mg/kg): 7% | BWC (CT26 tumors; 0.5 mg/kg): 1.4% | BWC (CT26 tumors; 1.4 mg/kg): −11% | Re-implanted cured mice still tumor free on Day 35 after re-implantation (MC-38 tumors; [4]): one | Re-implanted cured mice that regrew the tumor (MC-38 tumors; [4]): three | Tumor volume (Mean ± SEM) (MC-38 tumors; Day 7 after re-implantation): 32 ± 14 mm^3 | Tumor volume (Mean ± SEM) (MC-38 tumors; Day 9 after re-implantation): 106 ± 44 mm^3 | Tumor volume (Mean ± SEM) (MC-38 tumors; Day 11 after re-implantation): 152 ± 55 mm^3 | Tumor volume (Mean ± SEM) (MC-38 tumors; Day 14 after re-implantation): 373 ± 174 mm^3 | Tumor volume (Mean ± SEM) (MC-38 tumors; Day 16 after re-implantation): 568 ± 258 mm^3 | Tumor volume (Mean ± SEM) (MC-38 tumors; Day 18 after re-implantation): 886 ± 429 mm^3 | Tumor volume (Mean ± SEM) (MC-38 tumors; Day 21 after re-implantation): 1911 ± 794 mm^3 | Cure Rate (H22 tumors; [5]): 0% | MST (H22 tumors; [5]): 45 days | Cure Rate (H22 tumors; [6]): 0% | MST (H22 tumors; [6]): 47 days | TGI (H22 tumors; Compound 1 alone 0.7 mg/kg, p<0.001): ~80% | TGI (H22 tumors; Compound 1 alone 1.4 mg/kg, p<0.001): ~80% | BWC (H22 tumors; [7]): 0% | Mean Tumor Vol (H22 tumors; [7]): 529 ± 64 mm^3 | TGI (H22 tumors; [7]): 79% | BWC (H22 tumors; [8]): 7% | Mean Tumor Vol (H22 tumors; [8]): 465 ± 133 mm^3 | TGI (H22 tumors; [8]): 82%
